Results from patent publication US20060093561A1, “Method of treating microorganisms in the oral cavity” (priority 2004, published 2006).

Legend:
[1] = Storage stability of TBO stock solution; type: physicochemical; conditions: 1 mg/ml in PBS, filter sterilized, dark tubes at −20° C., up to 3 months
Description: (§1) The photosensitizer TBO (Sigma) was dissolved in Dulbecco's Phosphate Buffered Saline (PBS) (Sigma) to a concentration of 1 mg/ml under ambient light. […] The stock was diluted to appropriate concentrations with PBS as required.

[2] = system: P. gingivalis; test: Photodynamic therapy assay after serum washout of bacteria; type: cell-based, Porphyromonas gingivalis 381
Description: (§2) An overnight bacterial culture was removed from the anaerobic chamber and centrifuged at 2400×g for 5 minutes in an IEC21000R centrifuge (Fisher). The supernatant was discarded and the pellet washed and resuspended three times in PBS. The bacterial suspension was then adjusted to a working concentration of approximately 10^10 colony forming units (cfu)/ml by measurement of optical density at 600 nm (Pharmacia LKB Ultraspec III). The suspension was returned to the anaerobic chamber and aliquoted in pre-reduced 1.5 ml microfuge tubes (Fisher) in order to decrease oxygen exposure of the anaerobic suspension.
(§3) Prior to light irradiation, 75 μl of calibrated bacterial suspension (7.5×10^8 cfu) was mixed with 75 μl of TBO stock solution (100 μg/ml) in a sterile tube, for a final mixture concentration of 5×10^9 cfu/ml and 50 μg/ml TBO. The mixture was then incubated at room temperature for 5 min. in the dark. TBO negative controls were incubated with an equal volume of sterile PBS instead of TBO. The mixture was then added to a sterilized perfusion chamber (Cedarlane Laboratories) mounted on a glass coverslip. The perfusion chamber was 500 μm thick, and so attenuation of the treatment light by the TBO was only 30% at 50 μg/ml. […] Colony counts determined the number of bacterial survivors and they were expressed as cfu/ml. […]

[3] = system: F. nucleatum; test: as above; type: cell-based, Fusobacterium nucleatum 1213; conditions: xenon lamp 10 J/cm^2, 100 mW/cm^2, 12.5 μg/ml TBO
Excerpt: (§4) The following bacteria were used in these experiments and cultivated in an anaerobic chamber (available commercially from Coy Manufacturing Co.; AnnArbor, Mich., USA): Porphyromonas gingivalis 381; Prevotella intermedia 25611; Actinobacillus actinomycetemcomitans UT32; Fusobacterium nucleatum 1213; Bacteroides forsythus 43037. P. gingivalis and P. intermedia strains were subcultured weekly in Todd Hewitt Broth (available commercially from Fisher Scientific; Nepean, Ontario, Canada; hereinafter referred to as Fisher) supplemented with 5 μg/ml hemin (Sigma-Aldrich Co.; Oakville, Ontario, Canada; hereinafter referred to as Sigma) and 1 μg/ml menadione (Sigma). A. actinomycetemcomitans was subcultured in Tryptic Soy Broth (Fisher) containing 6 g/l yeast extract (Fisher) and 8 ml of 1.5% sodium bicarbonate, filter sterilized (Fisher). F. nucleatum was subcultured in Todd Hewitt Broth. […]
(§5) Prior to light irradiation, 75 μl of calibrated bacterial suspension (7.5×10^8 cfu) was mixed with 75 μl of TBO stock solution (100 μg/ml) in a sterile tube, for a final mixture concentration of 5×10^9 cfu/ml and 50 μg/ml TBO. […] Colony counts determined the number of bacterial survivors and they were expressed as cfu/ml. […]

[4] = system: P. gingivalis; test: Photodynamic therapy assay, serum and blood bacteria suspensions; type: cell-based, Porphyromonas gingivalis 381
Description: as §2
as §3, with “μg/ml. For most treatments at a concentration of 12.5 μg/ml TBO, the attenuation of treatment light was only 9%. The inoculated perfusion chamber was irradiated under the desired conditions with a light beam whose diameter covered the perfusion chamber's transparent surface.” for “μg/ml.”

[5] = system: P. intermedia; test: Photodynamic therapy assay after serum washout of bacteria; type: cell-based, Prevotella intermedia 25611; conditions: xenon lamp 10 J/cm^2, 100 mW/cm^2, 12.5 μg/ml TBO
Excerpt: as §4, §5

[6] = system: A. actinomycetemcomitans; test: as above; type: cell-based, Actinobacillus actinomycetemcomitans UT32; conditions: xenon lamp 10 J/cm^2, 100 mW/cm^2, 12.5 μg/ml TBO
Excerpt: as §4, §5

[7] = system: B. forsythus; test: as above; type: cell-based, Bacteroides forsythus 43037; conditions: xenon lamp 10 J/cm^2, 100 mW/cm^2, 12.5 μg/ml TBO
Excerpt: as §4, §5

[8] = system: P. gingivalis; test: Photodynamic therapy assay, bacteria suspended in PBS; type: cell-based, Porphyromonas gingivalis 381; conditions: for killing of P. gingivalis: light dose 2.2 J/cm^2, 50 μg/ml TBO, 5 min incubation
Excerpt: The following bacteria were used in these experiments and cultivated in an anaerobic chamber (available commercially from Coy Manufacturing Co.; AnnArbor, Mich., USA): Porphyromonas gingivalis 381; Prevotella intermedia 25611; Actinobacillus actinomycetemcomitans UT32; Fusobacterium nucleatum 1213; Bacteroides forsythus 43037. P. gingivalis and P. intermedia strains were subcultured weekly in Todd Hewitt Broth (available commercially from Fisher Scientific; Nepean, Ontario, Canada; hereinafter referred to as Fisher) supplemented with 5 μg/ml hemin (Sigma-Aldrich Co.; Oakville, Ontario, Canada; hereinafter referred to as Sigma) and 1 μg/ml menadione (Sigma). A. actinomycetemcomitans was subcultured in Tryptic Soy Broth (Fisher) containing 6 g/l yeast extract (Fisher) and 8 ml of 1.5% sodium bicarbonate, filter sterilized (Fisher). F. nucleatum was subcultured in Todd Hewitt Broth. B. forsythus was subcultured in Brain Heart Infusion Broth (95 ml) (Fisher) supplemented with 0.001 g N-acetylmuramic acid (Sigma) in 5 ml Horse Serum (Cedarlane Laboratories; Hornby, Ontario, Canada), filter sterilized. Prior to experiments, a fresh broth tube was inoculated and allowed to grow overnight at 37° C. in the anaerobic chamber.
A 100 Watt red-filtered xenon fibre optic light source having a bandwidth of 620-640 nm (available commercially from EXFO, Inc.; Mississauga, Ontario, Canada) was used in these experiments. […] Light dose for each source was calculated by the cross product of the TBO absorption spectrum and light spectrum.
as §1, §2
Prior to light irradiation, 75 μl of calibrated bacterial suspension (7.5×10^8 cfu) was mixed with 75 μl of TBO stock solution (100 μg/ml) in a sterile tube, for a final mixture concentration of 5×10^9 cfu/ml and 50 μg/ml TBO. The mixture was then incubated at room temperature for 5 min. in the dark. TBO negative controls were incubated with an equal volume of sterile PBS instead of TBO. The mixture was then added to a sterilized perfusion chamber (Cedarlane Laboratories) mounted on a glass coverslip. The perfusion chamber was 500 μm thick, and so attenuation of the treatment light by the TBO was only 30% at 50 μg/ml. For most treatments at a concentration of 12.5 μg/ml TBO, the attenuation of treatment light was only 9%. The inoculated perfusion chamber was irradiated under the desired conditions with a light beam whose diameter covered the perfusion chamber's transparent surface. Upon completion, the mixture was removed and serially diluted in PBS and each dilution was plated on the following media: for P. gingivalis, P. intermedia, and F. nucleatum, Trypticase Soy Agar (Fisher) supplemented with 5 g/l yeast extract, 5 μg/ml hemin, 1 μg/ml menadione, 50 ml/l defibrinated sheep's blood (Oxoid, Inc.; Nepean, Ontario, Canada); for B. forsythus, Trypticase Soy Agar supplemented with 4 g/L yeast extract, 4 g/L trypticase peptone (Fisher), N-acetymuramic acid (10 mg/ml stock filter sterilized into medium to 10 mg/l); and for A. actinomycetemcomitans, Tryptic Soy Agar. […]

[9] = xenon lamp 6.3 J/cm^2, 100 mW/cm^2, 12.5 μg/ml TBO

storage stability of stock solution [1]: without a loss in potency
Compound: Cc1cc2nc3ccc(N(C)C)cc3[s+]c2cc1N [TBO, toluidine blue O]
P. gingivalis killing after serum washout [2, 9]: 4.71±1.07 logs
P. gingivalis kill after serum washout ([2]; xenon lamp 10 J/cm^2, 100 mW/cm^2, 12.5 μg/ml TBO): 5.48±0.68 logs
F. nucleatum kill [3]: 4.7±0.72 logs
P. gingivalis killing with serum ([4]; FBS 50% (v/v), xenon lamp 6.3 J/cm^2, 100 mW/cm^2, 12.5 μg/ml TBO): 3.05±1.02 logs
maximum blood resuspended P. gingivalis kill ([4]; defibrinated sheep's blood, xenon lamp 20 J/cm^2, 100 mW/cm^2, 12.5 μg/ml TBO): 2.85±0.33 logs
kill of blood suspended P. gingivalis compared to TBO absent controls at higher light doses ([4]; defibrinated sheep's blood, xenon lamp 100 mW/cm^2, 12.5 μg/ml TBO, light doses above 10 J/cm^2): ~3 log
P. intermedia kill [5]: 5.33±0.62 logs
A. actinomycetemcomitans kill [6]: 5.51±1.34 logs
B. forsythus killing [7]: 3.92±0.68 logs
increase in bacterial killing, xenon lamp versus He—Ne laser ([8]; 2.2 J/cm^2, 50 μg/ml TBO): ~10 fold
reduction in viable bacteria ([8]; He—Ne laser, 2.2 J/cm^2, 50 μg/ml TBO): approximately 270 ×
killing of P. gingivalis ([8]; He—Ne laser): 2.43±0.39 logs
killing of P. gingivalis ([8]; red-filtered xenon lamp): 3.34±0.24 logs
P. gingivalis kill in the absence of serum [8, 9]: 6.02±0.76 logs
kill of P. gingivalis at each TBO concentration tested ([8]; xenon lamp 6.3 J/cm^2 and 100 mW/cm^2, each drug concentration incl. 3.125, 6.25 and 12.5 μg/ml): 5 logs
kill of P. gingivalis ([8]; xenon lamp 10 mW/cm^2, total light dose 2.2 J/cm^2, 50 μg/ml TBO): 2.12±0.36 logs
kill of P. gingivalis ([8]; xenon lamp 25 mW/cm^2, total light dose 2.2 J/cm^2, 50 μg/ml TBO): 3.34±0.41 logs
bacterial kill of P. gingivalis ([8]; xenon lamp 100 mW/cm^2, light dose 6.3 J/cm^2, 50 μg/ml TBO): 5 logs
kill of P. gingivalis ([8]; xenon lamp 100 mW/cm^2, total light dose 2.2 J/cm^2, 50 μg/ml TBO): 3.41±0.58 logs
